The values below come from US20250154152A1, “INHIBITORS OF NAEGLERIA FOWLERI” (Wisconsin Alumni Research Foundation, priority 2023, published 2025).

Read-outs that look alike come from different tables or passages of the source.

In this test the test system is N. fowleri strain Nf69 (ATCC 30215) trophozoites. The test can be described thus: Determination of EC50 values against Naegleria fowleri (growth inhibition, CellTiter Glo, 48 h). The format is cell-based. The protocol:
N. fowleri strain Nf69 (ATCC 30215) trophozoites were cultured axenically. Amoeba were seeded at […] in 100 μL of the indicated medium in white TC-treated 96-well plates (Thermo Scientific Nunc Microwell 136101). Cells were seeded into Nelson's Complete Media (NCM, 0.17% liver infusion broth (BD Difco, Franklin Lakes, NJ), 0.17% glucose, 0.012% sodium chloride, 0.0136% potassium phosphate monobasic, 0.0142% sodium phosphate dibasic, 0.0004% calcium chloride, 0.0002% magnesium sulfate, 10% heat-inactivated fetal bovine serum (FBS), 1% penicillin-streptomycin) at 37° C. in 96-well tissue culture plates. Vehicle or compound at concentrations initially ranging from 20 to 0.375 μM were added to cells, followed by culture for 48 h (37° C., 5% CO2). Plates were equilibrated to rt for 15 min and CellTiter Glo reagent was added followed by orbital shaking for 2 min. After an additional incubation (rt, 10 min), luminescence was scored on a BioTek Synergy H1 microplate reader. Luminescence values were used to calculate percent cell growth inhibition (based on controls) for each concentration of compound tested. Averages of triplicates were calculated and fit to dose-response curves for the determination of EC50 values, using Prism 9.0 (GraphPad Software, San Diego, CA). […] Other controls included media alone, cells and media, and vehicle and media. For very potent compounds, concentration of reagent in the dose-response assays were reduced to provide an appropriate range for EC50 value resolution.
Compounds of the present technology were tested for growth inhibition of N. fowleri per General Procedure 13, above.
A general note: In ATP-based viability assays light output follows the ATP content of the culture.

Where [1] appears, read: ATCC30215, N. fowleri Nf69 trophozoites, 48 h culture, 37° C., CellTiter Glo luminescence, read-out: EC50 uM against N. fowleri.

Consider `CN1CCO[C@@H]2c3nc4ccc(Cl)cc4c(=O)n3CC[C@H]21` (racemic) [trans-5w, (±)-(4aR,13bS)-10-chloro-4-methyl-3,4,4a,5,6,13b-hexahydro-[1,4]oxazino[2′,3′:3,4]pyrido[2,1-b]quinazolin-8(2H)-one], for which the EC50 under setting [1] was > 10 µM. For the molecule `CCCCCCCCCCCCCCCCOP(=O)([O-])OCC[N+](C)(C)C` [Miltefosine, miltefosine, reference compound], under “ATCC30215, positive control, N. fowleri Nf69 trophozoites, 48 h, CellTiter Glo, read-out: N. fowleri EC50”, the EC50 came to 35.7 ± 9.1 µM. As for `O=c1c2cc(Cl)c(Cl)cc2nc2n1CC[C@@H]1[C@@H]2CCCN1CC1CC1` (racemic) [trans-7q, (±)-(4aR,13bS)-10,11-dichloro-4-(cyclopropylmethyl)-1,2,3,4,4a,5,6,13b-octahydro-8H-[1,6]naphthyridino[5,6-b]quinazolin-8-one], the EC50 under setting [1] was 0.0001 to 0.1 µM.

Consider `CN1CCC[C@H]2c3nc4cc(Cl)c(Cl)cc4c(=O)n3CC[C@@H]21` [trans-10f-ent-2, (4aS,13bR)-10,11-dichloro-4-methyl-1,2,3,4,4a,5,6,13b-octahydro-8H-[1,6]naphthyridino[5,6-b]quinazolin-8-one], for which, for the setting “ATCC30215, 48 h, read-out: EC50 uM against N. fowleri”, the EC50 lay within 1 to 10 µM. As for `CC(C)(C)C(=O)N1CCC[C@@H]2c3nc4cc(Cl)c(Cl)cc4c(=O)n3CC[C@H]21` (racemic) [trans-7d, (±)-(4aR,13bS)-10,11-dichloro-4-pivaloyl-1,2,3,4,4a,5,6,13b-octahydro-8H-[1,6]naphthyridino[5,6-b]quinazolin-8-one], under setting [1], the EC50 is > 10 µM. With `O=c1c2cc(Cl)c(Cl)cc2nc2n1CC[C@@H]1[C@@H]2CCCN1CCO` (racemic) [trans-7j, (±)-(4aR,13bS)-10,11-dichloro-4-(2-hydroxyethyl)-1,2,3,4,4a,5,6,13b-octahydro-8H-[1,6]naphthyridino[5,6-b]quinazolin-8-one], the EC50 under setting [1] lay within 0.0001 to 0.1 µM. Same read-out and setting: next, `CN1CCO[C@@H]2c3nc4ccc(C(F)(F)F)cc4c(=O)n3CC[C@H]21` (racemic) [trans-5x, (±)-(4aR,13bS)-4-methyl-10-(trifluoromethyl)-3,4,4a,5,6,13b-hexahydro-[1,4]oxazino[2′,3′:3,4]pyrido[2,1-b]quinazolin-8(2H)-one]: > 10 µM. For `Cn1c([C@@H]2CCCN(Cc3ccncc3)C2)nc2cc(Cl)c(Cl)cc2c1=O` [Compound R-14u, (R)-6,7-dichloro-3-methyl-2-(1-(pyridin-4-ylmethyl)piperidin-3-yl)quinazolin-4(3H)-one], under setting [1], the EC50 is > 10 µM. The same measure, in the same setting: next, `COCCn1c([C@@H]2CCCN(CC3COC3)C2)nc2cc(Cl)c(Cl)cc2c1=O` [Compound R-14k, (R)-6,7-dichloro-3-(2-methoxyethyl)-2-(1-(oxetan-3-ylmethyl)piperidin-3-yl)quinazolin-4(3H)-one]: > 10 µM. As for `Cn1c([C@@H]2CCCN(CC3COC3)C2)nc2cc(Cl)c(Cl)cc2c1=O` [Compound R-14f, (R)-6,7-dichloro-3-methyl-2-(1-(oxetan-3-ylmethyl)piperidin-3-yl)quinazolin-4(3H)-one], the EC50 under setting [1] lay within 0.1 to 1 µM. With `Cn1c([C@@H]2CCCN(CC3COC3)C2)nc2ccc(F)cc2c1=O` [Compound R-14q, (R)-6-fluoro-3-methyl-2-(1-(oxetan-3-ylmethyl)piperidin-3-yl)quinazolin-4(3H)-one], under setting [1], the EC50 was > 10 µM. For the molecule `COc1cccc2c(=O)n3c(nc12)[C@@H]1CCN(C)[C@@H]1CC3` (racemic) [cis-5dd, (±)-(3aR,12bR)-11-methoxy-3-methyl-2,3,3a,4,5,12b-hexahydropyrrolo[3′,2′:3,4]pyrido[2,1-b]quinazolin-7(1H)-one], the EC50 under setting [1] is > 10 µM.

Regarding `O=C(N1CCOCC1)N1CCC[C@@H]2c3nc4cc(Cl)c(Cl)cc4c(=O)n3CC[C@H]21` (racemic) [trans-7f, (±)-(4aR,13bS)-10,11-dichloro-4-(morpholine-4-carbonyl)-1,2,3,4,4a,5,6,13b-octahydro-8H-[1,6]naphthyridino[5,6-b]quinazolin-8-one], the EC50 under setting [1] is > 10 µM.

`O=c1c2cc(Cl)c(Cl)cc2nc2n1CC[C@@H]1[C@@H]2CCCN1Cc1ccccc1` (racemic) [trans-7w, (±)-(4aR,13bS)-4-benzyl-10,11-dichloro-1,2,3,4,4a,5,6,13b-octahydro-8H-[1,6]naphthyridino[5,6-b]quinazolin-8-one]: the EC50 under setting [1] lay in the range of 0.1 to 1 µM. On the same count and under the same terms, next, `CN(C)CCn1c([C@@H]2CCCN(CC3COC3)C2)nc2cc(Cl)c(Cl)cc2c1=O` [Compound R-14l, (R)-6,7-dichloro-3-(2-(dimethylamino)ethyl)-2-(1-(oxetan-3-ylmethyl)piperidin-3-yl)quinazolin-4(3H)-one]: > 10 µM; `CN1CCO[C@H]2c3nc4ccc(Cl)cc4c(=O)n3CC[C@H]21` (racemic) [cis-5w, (±)-(4aR,13bR)-10-chloro-4-methyl-3,4,4a,5,6,13b-hexahydro-[1,4]oxazino[2′,3′:3,4]pyrido[2,1-b]quinazolin-8(2H)-one]: > 10 µM; `CN1CCC[C@H]2c3nc4ccc(C#N)cc4c(=O)n3CC[C@H]21` (racemic) [cis-5i, (±)-(4aR,13bR)-4-methyl-8-oxo-2,3,4,4a,5,6,8,13b-octahydro-1H-[1,6]naphthyridino[5,6-b]quinazoline-10-carbonitrile]: 1 to 10 µM.

For the molecule `CN1CCC[C@H]2c3nc4cc(Cl)c(Cl)cc4c(=O)n3CC[C@H]21` (racemic) [cis-5q, (±)-(4aR,13bR)-10,11-dichloro-4-methyl-1,2,3,4,4a,5,6,13b-octahydro-8H-[1,6]naphthyridino[5,6-b]quinazolin-8-one], the EC50 under setting [1] is 0.1 to 1 µM. In the case of `CN1CC[C@H]2c3nc4ccc(Cl)cc4c(=O)n3CC[C@H]21` (racemic) [cis-5hh, (±)-(3aR,12bR)-9-chloro-3-methyl-2,3,3a,4,5,12b-hexahydropyrrolo[3′,2′:3,4]pyrido[2,1-b]quinazolin-7(1H)-one], the EC50 under setting [1] is > 10 µM. The same measure, in the same setting: next, `CN1CCC[C@H]2c3nc4ccc(Cl)cc4c(=O)n3CC[C@H]21` (racemic) [cis-5d, (±)-(4aR,13bR)-10-chloro-4-methyl-1,2,3,4,4a,5,6,13b-octahydro-8H-[1,6]naphthyridino[5,6-b]quinazolin-8-one]: 1 to 10 µM; `COc1ccc2nc3n(c(=O)c2c1)CC[C@@H]1[C@H]3CCCN1C` (racemic) [cis-5g, (±)-(4aR,13bR)-10-methoxy-4-methyl-1,2,3,4,4a,5,6,13b-octahydro-8H-[1,6]naphthyridino[5,6-b]quinazolin-8-one]: > 10 µM; `CN1CCC[C@@H]2c3nc4ccc(C#N)cc4c(=O)n3CC[C@H]21` (racemic) [trans-5i, (±)-(4aR,13bS)-4-methyl-8-oxo-2,3,4,4a,5,6,8,13b-octahydro-1H-[1,6]naphthyridino[5,6-b]quinazoline-10-carbonitrile]: 0.1 to 1 µM. For `CN1CCC[C@H]2c3nc4cnccc4c(=O)n3CC[C@H]21` (racemic) [cis-5p, (±)-(4aR,13bR)-4-methyl-1,2,3,4,4a,5,6,13b-octahydro-8H-pyrido[3′,4′:4,5]pyrimido[2,1-f][1,6]naphthyridin-8-one], under setting [1], the EC50 was > 10 µM.

Turning to `O=c1c2cc(Cl)ccc2nc2n1CC[C@H]1NCCC[C@H]21` (racemic) [trans-6a, (±)-(4aR,13bS)-10-chloro-1,2,3,4,4a,5,6,13b-octahydro-8H-[1,6]naphthyridino[5,6-b]quinazolin-8-one], under setting [1], the EC50 lay in the range of 1 to 10 µM.

Consider `CN1CCC[C@@H]2c3nc4cnccc4c(=O)n3CC[C@H]21` (racemic) [trans-5p, (±)-(4aR,13bS)-4-methyl-1,2,3,4,4a,5,6,13b-octahydro-8H-pyrido[3′,4′:4,5]pyrimido[2,1-f][1,6]naphthyridin-8-one], for which, under setting [1], the EC50 is > 10 µM.

Regarding `COc1cc2nc3n(c(=O)c2cc1Cl)CC[C@@H]1[C@H]3CCCN1C` (racemic) [cis-5gg, (±)-(4aR,13bR)-10-chloro-11-methoxy-4-methyl-1,2,3,4,4a,5,6,13b-octahydro-8H-[1,6]naphthyridino[5,6-b]quinazolin-8-one], the EC50 under setting [1] fell in the range of 0.1 to 1 µM. Consider `CN1CCC[C@@H]2c3nc4cc(Br)ccc4c(=O)n3CC[C@H]21` (racemic) [trans-5l, (±)-(4aR,13bS)-11-bromo-4-methyl-1,2,3,4,4a,5,6,13b-octahydro-8H-[1,6]naphthyridino[5,6-b]quinazolin-8-one], for which the EC50 under setting [1] fell in the range of 1 to 10 µM.

Regarding `CN1CCC[C@H]2c3nc4cc(C(F)(F)F)ccc4c(=O)n3CC[C@H]21` (racemic) [cis-5n, (±)-(4aR,13bR)-4-methyl-11-(trifluoromethyl)-1,2,3,4,4a,5,6,13b-octahydro-8H-[1,6]naphthyridino[5,6-b]quinazolin-8-one], the EC50 under setting [1] was in the range of 1 to 10 µM. On to `CN1CCC[C@@H]2c3nc4cc(Cl)c(Cl)cc4c(=O)n3CC[C@H]21` [trans-10e-ent-1, (4aR,13bS)-10,11-dichloro-4-methyl-1,2,3,4,4a,5,6,13b-octahydro-8H-[1,6]naphthyridino[5,6-b]quinazolin-8-one], for which, under setting [1], the EC50 lay in the range of 0.0001 to 0.1 µM.

The EC50 is the concentration at which the effect is half-maximal.
